# Test results from patent publication US20130196050A1, “SALTY TASTE ENHANCER” (AJINOMOTO CO., INC., priority 2010, published 2013).
# System: salty taste
# Test: Sensory evaluation of salty taste-enhancing activity (quantitative sensory evaluation test)
# Format: in vivo, panelists
# Method: The strength of the salty taste enhancing activity of the compound of Example 35 was examined by a quantitative sensory evaluation test.
# The quantitative sensory evaluation test was performed as follows. The strength of the salty taste enhancing activity when the compound of Example 35 as a sample was mixed at 0.00005 to 0.0040 g/dl with distilled water containing sodium chloride (0.5 g/dl) was measured. Distilled water containing sodium chloride at 0.55 g/dl, 0.60 g/dl, 0.65 g/dl was used as a comparison target. Using a linear measurement method, the corresponding marks were put down as positions in the straight lines showing the sodium chloride concentrations of 1.0 time (0.50 g/dl), 1.1 times (0.55 g/dl), 1.2 times (0.60 g/dl), 1.3 times (0.65 g/dl). For sensory marks, the positions put down by the panelists were measured, averaged and shown as the salty taste enhancement ratio (times) wherein n=5. […] The “initial taste” is the evaluation of the strength of the salty taste for 2 seconds after placing in the mouth, and the “middle and after taste” is a combination of middle taste and after taste, which is the evaluation of the strength of the salty taste after 2 seconds from placing in the mouth.
# [1] = sensory evaluation FIG. 2 compared with FIG. 3
structure (smiles),measurement,setting,value
"O=C(NCCc1c[nH]c2ccc(O)cc12)c1c(O)cccc1O [Example 35, 2,6-dihydroxy-N-(2-(5-hydroxy-1H-indol-3-yl)ethyl)benzamide]",salty taste enhancing activity,"0.00005 to 0.0040 g/dl in distilled water containing sodium chloride 0.5 g/dl, n=5, FIG. 2",has a salty taste enhancing activity
same,concentration region in which salty taste enhancing effect and ENaC activation current began to show,[1],≤ 0.0001 g/dL
same,concentration region in which salty taste enhancing effect and ENaC activation current reach plateau,[1],exceeding 0.0010 g/dl
